Data from patent US11137392B2, “Cantilever sensors for molecule detection” (3P SENSE LIMITED, priority 2016, dated 2021).

How the values were obtained:
[1] = test system: vancomycin susceptible receptor (VSR); experiment: Differential cantilever bending / surface stress of unpassivated VSR-functionalized cantilevers against Van; assay type: binding
Description: Detection of cantilever bending response in case of optical readout is performed, for example, by using serial time multiplexed optical beam method with a single position sensitive detector, although other readouts such as electronic or diffraction can be used. The laser spot (about 100 μm diameter) is aligned onto the free end of each sensor where the accuracy of alignment is confirmed by heating test. The expected precision of laser spot alignment is determined by calculating the bending variation at the maximum bending signals between individual cantilever sensors. Well aligned cantilevers at the maximum bending signals should yield a relative standard deviation of the bending signals of about ≤10%, preferably about ≤5%, between them. Correlating the response signal to the presence or absence of the molecule to be detected includes a first step of calculating the net change in stress, using the mathematical model reported above, and then a second step of associating the net change in stress value to the presence of absence of the molecule and, in case of presence, to the concentration level of the molecule.
Case I: Simultaneous functionalization of Au(top) and Si(bottom) surfaces of cantilever arrays: To systematically alter both Au(top) and Si(bottom) surfaces into chemically active sensing layers, the arrays of eight rectangular cantilevers were subjected to surface capture molecules in micro-capillary glass tubes (King Precision Glass, Claremont, Calif., USA), arranged according to the cantilever pitch size of 250 μm. The alkanethiols of self-assembled monolayers (SAMs), namely vancomycin susceptible receptor (VSR˜0.6 kDa) analogues to bacterial cell wall precursors that present uncrosslinked peptide motifs terminating in the sequence lysine-D-alanine-D-alanine and ‘inert’ SAM molecule terminating in triethylene glycol (PEG) whose detailed structural sequences have been described previously were diluted in ethanol solution to yield total concentrations of: 0.1 μM, 1 μM, 10 μM, 50 μM, 100 μM, 1000 μM, 2000 μM, 3000 μM and 4000 μM. Individual VSR and PEG concentrations were injected into micro-capillary glass tubes and cantilevers were then incubated inside the capillaries for 20 min, washed three times with ethanol and stored in distilled water until usage. The functionalization procedure was carried out without pre-adsorbing resistive protein monolayer bovine serum albumin (BSA) or PEG-silane, known for blocking nonspecific interactions.
To tune the receptor footprint (area per each receptor molecule) for enhanced biodetectability and to achieve satisfactory quantitative drug-target measurements, certain steps within the functionalization protocol were addressed. The first task was to define the percentage ratio of VSR by incorporating a receptor molecule with second SAM-forming molecule PEG. The ratio of VSR and PEG molecules dissolved in ethanol was varied to yield a total concentration in the solution of 1 μM, for which full surface coverage was established. The corresponding mixed ethanolic thiol solutions of VSR and ‘inert’ PEG mixed in the ratio of 30%, 70%, 90%, and 100% were used to coat cantilever arrays.
FIG. 1a-b show the functionalization of both surfaces of the cantilever with a self-assembled monolayer (SAM) of vancomycin (Van) susceptible receptor (VSR ˜0.6 kDa) analogues of the bacterial cell wall precursors that present uncrosslinked peptide motifs terminating in the sequence lysine-D-alanine-D-alanine. To eliminate the artifacts that produce non-specific signals differential measurements were performed in which reference polyethylene glycol(PEG)-coated cantilever bending signals were subtracted from the receptor signals.
This functionalization was performed without pre-adsorbing a resistive protein monolayer of bovine serum albumin (BSA) or PEG-silane, which are known to block non-specific interactions. […]

[2] = test system: vancomycin susceptible receptor (VSR); details: previous measurements (known cantilever); cited from earlier work

CN[C@H](CC(C)C)C(=O)N[C@H]1C(=O)N[C@@H](CC(N)=O)C(=O)N[C@H]2C(=O)N[C@H]3C(=O)N[C@H](C(=O)N[C@H](C(=O)O)c4cc(O)cc(O)c4-c4cc3ccc4O)[C@H](O)c3ccc(c(Cl)c3)Oc3cc2cc(c3O[C@@H]2O[C@H](CO)[C@@H](O)[C@H](O)[C@H]2O[C@H]2C[C@](C)(N)[C@H](O)[C@H](C)O2)Oc2ccc(cc2Cl)[C@H]1O [Van, vancomycin]
Compressive stress (differential surface stress) ([1]; Van 250 μM, VSR 50 μM in functionalizing solution, unpassivated cantilever): 52 mN m^−1
Stress signal σmax ([1]; Van 250 μM, VSR concentration beyond 50 μM (regime II)): ≈ 5 mN m^−1
Cantilever stress ([1]; Van 250 μM, VSR/PEG 100% receptor, total concentration 1 μM): highest stress
Cantilever deflection signal ([1]; Van 250 μM, VSR/PEG ~30% receptor, total concentration 1 μM): negligible
Differential stress / bending response on reference PEG-coated cantilevers ([1]; Van 250 μM, reference PEG-coated cantilevers): no bending response and zero
Mechanical response on uncoated Au and Si surfaces ([1]; in the presence of Van, uncoated Au and Si surfaces as control): undetectable
Net stress, previous measurements [2]: 33 mN m^−1
